The source of these data is patent US20130280270A1, “METHODS OF TREATING LUNG DISEASE AND OTHER INFLAMMATORY DISEASES” (Duke University, priority 2009, published 2013).

Where two headings read alike, the source gives them in different places.

One data set relates to GRP receptor. The note with it: lung slices from one non-human primate, 2 slices MCh + antagonist; morphological assessment; cited from earlier work.
A further data set concerns cytokines. Briefly: Cytokine levels in ozone and ovalbumin in vivo mouse models of asthma. An excerpt: We have carried out experiments with GRP blockade given as an intraperitoneal (IP) injection to prevent and/or treat AHR in several different mouse models of airways hyperreactivity (AHR) and/or inflammation: ozone-induced AHR as a model for asthma precipitated by air pollution, ovalbumin (OVA)-induced AHR as a model of allergic airways inflammation, and endotoxin (lipopolysaccharide, LPS)-induced AHR as a first step towards assessing infectious causes of asthma. […] The invention would extend to any compound able to block GRP signaling by either binding to GRP itself or to the GRP receptor, which are part of the same signal transduction cascade. In the near future, we hope to test GRP blockade in additional mouse models of asthma, including: Mycoplasma infection, respiratory syncytial virus (RSV) infection, Aspergillus infection, and house dust mite exposure.

Data set [1] relates to chronic radiation pneumonitis. The data set can be described thus: Chronic radiation pneumonitis in mice after 15 Gy thoracic radiation. It counts as in vivo. The note with it: 500 nM 77427 twice a week IP following 15 Gy thoracic radiation. The protocol: We can also block chronic radiation pneumonitis in mice given 500 nM 77427 twice a week IP following 15 Gy thoracic radiation.

A further data set deals with GRP-induced angiogenesis. The note with it: in vitro and in vivo; cited from earlier work.
Data set [2] has as its target T1, GRP (Homo sapiens, UniProt P07492).
T1 sequence (P07492 24-50 limits assumed): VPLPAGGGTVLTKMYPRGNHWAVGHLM
The note with it: cited from earlier work.

In a further data set the test system is neovascularization. The note with it: on a molar basis (≈500 nM), compared with MoAb-2A11; cited from earlier work.
The conditions of data set [3]: F. Cuttitta, unpublished data; cited from earlier work.
The next data set deals with ozone-induced AHR. The data set can be described thus: Ozone-induced AHR mouse model (asthma precipitated by air pollution). It counts as in vivo. From the text:
(§1) We have carried out experiments with GRP blockade given as an intraperitoneal (IP) injection to prevent and/or treat AHR in several different mouse models of airways hyperreactivity (AHR) and/or inflammation: ozone-induced AHR as a model for asthma precipitated by air pollution, ovalbumin (OVA)-induced AHR as a model of allergic airways inflammation, and endotoxin (lipopolysaccharide, LPS)-induced AHR as a first step towards assessing infectious causes of asthma. These experiments used the small molecule GRP inhibitor, 77427, or a monoclonal anti-GRP blocking antibody, 2A 11. […] In the near future, we hope to test GRP blockade in additional mouse models of asthma, including: Mycoplasma infection, respiratory syncytial virus (RSV) infection, Aspergillus infection, and house dust mite exposure.
(§2) In contrast, mice were treated with dexamethasone (Dex), the standard of care for asthma, before ozone exposure.

The test system of data set [4] is endothelial cell tube formation. The note with it: Matrigel support matrix; cited from earlier work.
Data set [5] relates to ovalbumin (OVA)-induced AHR. Briefly: Ovalbumin (OVA)-induced AHR mouse model (allergic airways inflammation). Type of data set: in vivo.
Description: as §1, §2

Data set [6] addresses T1, GRP. The note with it: prevention of antibody-ligand interaction; blocking GRP-induced IP3 production and Ca2+ flux; cited from earlier work. For orientation: Calcium flux is commonly read through the fluorescence of an indicator in the cells.

[Leu^13-(ψ-CH2NH)-Leu^14]-bombesin: in the data set with GRP receptor, the “MCh-induced reduction of internal airway diameter (bronchoconstriction) of bronchi” value is “slightly reduced”.
For the molecule `Nc1nc(Cl)cc(NCCO)n1` [compound 77427], the “Interleukin-2 (IL-2)” value in the data set with cytokines (FIG. 2A) is recorded as “suppression”. In the data set with cytokines (FIG. 2C), the TNF-alpha entry is on record as “suppression”. Besides, the GM-CSF result in the data set on cytokines (FIG. 2D) is given as “suppression”. The IL-4 entry in the data set on cytokines (FIG. 2E) is “suppression”. In addition, in the data set with cytokines (FIG. 2F), the IL-5 entry is “suppression”. The IL-13 entry in the data set with cytokines (FIG. 2G) is “suppression”. For the same molecule, in the data set with cytokines (FIG. 2H), the IL-6 result was “suppression”. In addition, the IL-17 result with cytokines (FIG. 2I) is “suppression”. For the same molecule, the MCP-1 result in the data set with cytokines (FIG. 2J) is “suppression”. Besides, the KC result with cytokines (FIG. 2K) is on record as “suppression”. For the same molecule, the VEGF entry in the data set with cytokines (FIG. 2L) is “suppression”. The “cytokines tested whose increased levels are significantly suppressed (P<0.0001) or abrogated” value in the data set on cytokines (ozone and ovalbumin models, cytokines represent at least 5 inflammatory cell types) is listed as 21 of 21. Moreover, the chronic radiation pneumonitis result in [1] is “block”. Besides, in the data set with GRP-induced angiogenesis, the “inhibition of GRP-induced angiogenesis” value is given as “potent inhibitor”. Besides, the “blocks % of GRP” value is 50% on GRP [2] (5 nM 77427), 70% on GRP [2] (50 nM 77427) and 95% at GRP [2] (500 nM 77427). For the same molecule, the “suppressive response in stopping neovascularization” value in the data set with neovascularization was “equivalent suppressive response as MoAb-2A11”. In [3], the half-life is about 240 h. Further, the “airway hyperreactivity (AHR)” value (with ozone-induced AHR (ozone model); in data set [5]) was “abrogates” throughout. Besides, the airways inflammation entry (in the data set with ozone-induced AHR (ozone model); in data set [5]) was “abrogates” in each case. Moreover, in data set [4], the “blocking of GRP mediated endothelial cell tube formation” value is listed as “effective blocker”. Also, on GRP [6], the “mimetic to MoAb-2A11 / antagonist to GRP in screen” value is “ideal mimetic to MoAb-2A11”.
Turning to `C[C@@H]1C[C@H]2[C@@H]3CCC4=CC(=O)C=C[C@]4(C)[C@@]3(F)[C@@H](O)C[C@]2(C)[C@@]1(O)C(=O)CO` [Dex, dexamethasone], the “number of cytokines with significantly increased levels” value with ozone-induced AHR (treatment before ozone, IL-6, IL-12 (p40), TNFα) was found to be 3.

The term half-life denotes the time needed for the level to fall by half in the phase considered.
